Laboratory results from patent US10870647B2, “Imidazopyridine derivative, method for preparing same, and pharmaceutical composition containing same as active ingredient for preventing or treating cancer” (DAEGU-GYEONGBUK MEDICAL INNOVATION FOUNDATION, priority 2016, dated 2020).

What was measured:
Assay in all cases: Kinase selectivity, scanMAX Kinase assay panel (DiscoverX), % control at 1 uM
Assay type in all cases: binding
[1] = target: T1, scanMAX Kinase assay panel (Homo sapiens, UniProt P07949); conditions: RET; 1 uM; read-out: Percent Control (%)
T1 construct: purchased DiscoverX
T1 sequence (P07949 29-1114): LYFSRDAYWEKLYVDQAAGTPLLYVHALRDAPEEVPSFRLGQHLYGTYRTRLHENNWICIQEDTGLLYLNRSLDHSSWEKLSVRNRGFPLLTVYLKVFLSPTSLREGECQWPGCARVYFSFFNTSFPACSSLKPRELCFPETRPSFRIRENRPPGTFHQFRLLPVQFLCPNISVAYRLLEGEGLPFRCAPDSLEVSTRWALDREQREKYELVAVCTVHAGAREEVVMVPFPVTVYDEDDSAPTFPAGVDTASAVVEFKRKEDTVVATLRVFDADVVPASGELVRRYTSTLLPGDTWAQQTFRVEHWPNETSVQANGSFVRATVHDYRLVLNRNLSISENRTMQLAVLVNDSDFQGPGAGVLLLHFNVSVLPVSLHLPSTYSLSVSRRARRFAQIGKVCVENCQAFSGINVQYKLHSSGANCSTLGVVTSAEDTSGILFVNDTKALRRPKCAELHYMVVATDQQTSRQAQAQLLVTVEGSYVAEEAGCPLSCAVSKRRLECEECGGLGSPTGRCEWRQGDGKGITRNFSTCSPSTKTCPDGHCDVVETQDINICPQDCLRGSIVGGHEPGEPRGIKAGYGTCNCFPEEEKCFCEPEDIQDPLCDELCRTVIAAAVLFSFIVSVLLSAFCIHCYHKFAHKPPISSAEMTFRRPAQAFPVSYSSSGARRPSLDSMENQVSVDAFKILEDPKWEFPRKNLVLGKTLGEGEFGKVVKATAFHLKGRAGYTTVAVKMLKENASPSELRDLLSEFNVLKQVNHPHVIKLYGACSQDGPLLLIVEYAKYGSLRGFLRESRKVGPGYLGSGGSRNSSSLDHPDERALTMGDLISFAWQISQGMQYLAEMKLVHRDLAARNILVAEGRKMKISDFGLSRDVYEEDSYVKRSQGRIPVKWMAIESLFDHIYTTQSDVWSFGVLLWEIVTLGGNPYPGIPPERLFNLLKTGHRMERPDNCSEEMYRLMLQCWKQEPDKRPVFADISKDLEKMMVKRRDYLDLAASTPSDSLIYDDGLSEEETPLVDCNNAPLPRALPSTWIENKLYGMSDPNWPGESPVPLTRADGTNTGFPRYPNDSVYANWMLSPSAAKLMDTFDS
Summary of the method: (§1)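 Read-out is percent of control, derived from the signal with compound relative to positive and negative controls: (compound − positive)/(negative − positive) × 100. Each enzyme received test drug at 1 uM in DMSO, and values under 35% count as active.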

[2] = target: T2, scanMAX Kinase assay panel (Homo sapiens, UniProt P30291); conditions: WEE1; 1 uM; read-out: Percent Control (%)
T2 construct: purchased DiscoverX
T2 sequence (P30291 whole entry): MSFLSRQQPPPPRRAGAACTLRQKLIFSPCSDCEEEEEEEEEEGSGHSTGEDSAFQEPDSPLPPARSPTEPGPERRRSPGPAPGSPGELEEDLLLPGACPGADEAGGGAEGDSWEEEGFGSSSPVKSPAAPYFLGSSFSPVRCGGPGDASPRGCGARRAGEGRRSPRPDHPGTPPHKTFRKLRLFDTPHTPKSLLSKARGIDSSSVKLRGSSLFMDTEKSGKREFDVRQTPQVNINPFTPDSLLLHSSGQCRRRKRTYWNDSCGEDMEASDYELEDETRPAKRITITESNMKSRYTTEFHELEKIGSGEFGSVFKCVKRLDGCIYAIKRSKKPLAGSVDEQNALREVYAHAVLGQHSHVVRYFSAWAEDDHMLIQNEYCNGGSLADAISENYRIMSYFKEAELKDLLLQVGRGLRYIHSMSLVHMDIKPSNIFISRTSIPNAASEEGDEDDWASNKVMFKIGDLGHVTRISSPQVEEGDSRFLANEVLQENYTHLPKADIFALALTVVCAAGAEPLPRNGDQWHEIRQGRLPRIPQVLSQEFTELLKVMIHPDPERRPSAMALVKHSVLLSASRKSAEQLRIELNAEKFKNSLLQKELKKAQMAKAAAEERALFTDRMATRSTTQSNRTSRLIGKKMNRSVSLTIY
Summary of the method: as §1

[3] = target: T3, scanMAX Kinase assay panel (Homo sapiens, UniProt P32298); conditions: GRK4; 1 uM; read-out: Percent Control (%)
T3 construct: purchased DiscoverX
T3 sequence (P32298 whole entry): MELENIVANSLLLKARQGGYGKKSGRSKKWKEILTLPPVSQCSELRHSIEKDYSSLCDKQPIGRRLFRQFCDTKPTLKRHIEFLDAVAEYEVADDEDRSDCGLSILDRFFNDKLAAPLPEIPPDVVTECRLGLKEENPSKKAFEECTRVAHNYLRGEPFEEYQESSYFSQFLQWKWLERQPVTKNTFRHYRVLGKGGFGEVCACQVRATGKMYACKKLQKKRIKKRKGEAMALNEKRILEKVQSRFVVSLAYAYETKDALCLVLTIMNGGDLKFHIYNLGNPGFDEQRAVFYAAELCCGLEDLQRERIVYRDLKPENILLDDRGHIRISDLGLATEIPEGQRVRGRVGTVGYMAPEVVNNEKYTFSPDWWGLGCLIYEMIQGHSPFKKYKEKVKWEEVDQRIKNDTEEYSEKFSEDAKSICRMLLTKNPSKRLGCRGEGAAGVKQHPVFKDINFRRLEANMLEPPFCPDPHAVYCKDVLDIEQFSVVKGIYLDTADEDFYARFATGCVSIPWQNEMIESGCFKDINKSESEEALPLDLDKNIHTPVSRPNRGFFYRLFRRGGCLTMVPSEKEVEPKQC
Summary of the method: as §1

[4] = target: T4, scanMAX Kinase assay panel (Homo sapiens, UniProt Q13233); conditions: MAP3K1; 1 uM; read-out: Percent Control (%)
T4 construct: purchased DiscoverX
T4 sequence (Q13233 whole entry): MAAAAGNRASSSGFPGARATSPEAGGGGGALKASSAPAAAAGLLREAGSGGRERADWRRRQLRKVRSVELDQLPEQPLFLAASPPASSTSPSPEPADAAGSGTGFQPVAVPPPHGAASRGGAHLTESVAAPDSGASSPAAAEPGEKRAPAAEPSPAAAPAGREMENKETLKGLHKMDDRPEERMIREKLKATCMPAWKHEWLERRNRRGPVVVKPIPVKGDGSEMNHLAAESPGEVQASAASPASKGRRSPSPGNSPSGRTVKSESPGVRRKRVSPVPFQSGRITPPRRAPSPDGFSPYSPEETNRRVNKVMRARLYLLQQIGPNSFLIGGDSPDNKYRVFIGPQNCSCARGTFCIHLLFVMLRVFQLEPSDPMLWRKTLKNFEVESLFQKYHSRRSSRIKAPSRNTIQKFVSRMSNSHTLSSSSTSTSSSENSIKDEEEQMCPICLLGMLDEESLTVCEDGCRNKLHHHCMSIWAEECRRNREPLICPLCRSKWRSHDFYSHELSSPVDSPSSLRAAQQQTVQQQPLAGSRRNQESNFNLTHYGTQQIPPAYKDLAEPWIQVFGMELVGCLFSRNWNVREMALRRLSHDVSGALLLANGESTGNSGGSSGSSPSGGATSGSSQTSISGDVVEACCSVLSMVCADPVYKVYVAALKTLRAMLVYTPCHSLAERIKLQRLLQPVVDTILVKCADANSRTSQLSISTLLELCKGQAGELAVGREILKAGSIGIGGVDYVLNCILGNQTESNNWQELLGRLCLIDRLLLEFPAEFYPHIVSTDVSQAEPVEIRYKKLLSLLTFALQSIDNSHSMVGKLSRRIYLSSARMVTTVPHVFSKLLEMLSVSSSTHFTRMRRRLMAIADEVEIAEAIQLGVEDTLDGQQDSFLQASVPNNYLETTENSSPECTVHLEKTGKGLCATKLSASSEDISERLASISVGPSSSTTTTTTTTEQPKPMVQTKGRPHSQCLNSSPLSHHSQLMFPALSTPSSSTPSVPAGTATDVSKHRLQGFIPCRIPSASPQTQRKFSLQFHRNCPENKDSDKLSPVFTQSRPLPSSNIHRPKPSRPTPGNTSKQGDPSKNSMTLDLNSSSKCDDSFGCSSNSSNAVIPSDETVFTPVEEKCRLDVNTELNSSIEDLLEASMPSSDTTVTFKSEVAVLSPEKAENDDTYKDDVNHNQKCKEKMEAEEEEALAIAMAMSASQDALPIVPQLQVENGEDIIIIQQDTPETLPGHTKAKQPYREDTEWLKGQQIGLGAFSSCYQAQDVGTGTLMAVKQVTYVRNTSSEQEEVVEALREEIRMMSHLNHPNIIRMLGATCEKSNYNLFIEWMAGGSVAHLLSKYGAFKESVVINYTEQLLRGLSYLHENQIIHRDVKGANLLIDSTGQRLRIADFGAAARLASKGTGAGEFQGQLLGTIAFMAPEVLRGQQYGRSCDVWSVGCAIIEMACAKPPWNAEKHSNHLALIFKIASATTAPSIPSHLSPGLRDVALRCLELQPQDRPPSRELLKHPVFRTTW
Summary of the method: as §1

[5] = target: T5, scanMAX Kinase assay panel (Homo sapiens, UniProt Q6ZWH5); conditions: NEK10; 1 uM; read-out: Percent Control (%)
T5 construct: purchased DiscoverX
T5 sequence (Q6ZWH5 1-1172): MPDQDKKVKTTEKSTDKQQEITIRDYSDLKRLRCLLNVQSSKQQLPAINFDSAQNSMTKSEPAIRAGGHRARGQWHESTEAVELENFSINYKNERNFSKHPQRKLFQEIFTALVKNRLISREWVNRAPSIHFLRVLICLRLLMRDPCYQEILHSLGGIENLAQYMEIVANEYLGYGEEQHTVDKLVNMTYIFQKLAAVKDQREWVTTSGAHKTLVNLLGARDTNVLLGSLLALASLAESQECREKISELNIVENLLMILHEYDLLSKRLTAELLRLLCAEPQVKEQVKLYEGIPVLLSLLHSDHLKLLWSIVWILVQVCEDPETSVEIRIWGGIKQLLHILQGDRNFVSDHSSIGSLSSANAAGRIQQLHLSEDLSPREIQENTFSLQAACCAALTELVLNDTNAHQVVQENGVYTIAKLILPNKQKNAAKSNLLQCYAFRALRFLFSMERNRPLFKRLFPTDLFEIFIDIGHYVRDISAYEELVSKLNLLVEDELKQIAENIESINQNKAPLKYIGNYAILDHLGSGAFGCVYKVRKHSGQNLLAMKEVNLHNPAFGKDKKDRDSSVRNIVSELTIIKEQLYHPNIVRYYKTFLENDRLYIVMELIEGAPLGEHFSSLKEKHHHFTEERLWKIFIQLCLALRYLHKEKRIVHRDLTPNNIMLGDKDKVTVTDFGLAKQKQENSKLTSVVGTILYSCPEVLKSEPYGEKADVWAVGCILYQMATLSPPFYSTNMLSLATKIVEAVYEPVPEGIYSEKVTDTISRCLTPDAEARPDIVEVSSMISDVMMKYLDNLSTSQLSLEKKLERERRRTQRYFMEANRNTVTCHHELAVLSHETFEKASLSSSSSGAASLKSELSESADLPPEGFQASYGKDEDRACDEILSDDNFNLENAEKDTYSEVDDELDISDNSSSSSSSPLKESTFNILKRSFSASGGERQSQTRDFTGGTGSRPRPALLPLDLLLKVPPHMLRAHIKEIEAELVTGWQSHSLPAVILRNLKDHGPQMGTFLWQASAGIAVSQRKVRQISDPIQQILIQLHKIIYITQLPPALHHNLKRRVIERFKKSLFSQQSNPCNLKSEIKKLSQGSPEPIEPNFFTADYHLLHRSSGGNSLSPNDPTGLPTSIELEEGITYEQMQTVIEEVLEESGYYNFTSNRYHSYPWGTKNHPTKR
Summary of the method: as §1

[6] = target: T6, scanMAX Kinase assay panel (Homo sapiens, UniProt Q96GD4); conditions: AURKB; 1 uM; read-out: Percent Control (%)
T6 construct: purchased DiscoverX
T6 sequence (Q96GD4 whole entry): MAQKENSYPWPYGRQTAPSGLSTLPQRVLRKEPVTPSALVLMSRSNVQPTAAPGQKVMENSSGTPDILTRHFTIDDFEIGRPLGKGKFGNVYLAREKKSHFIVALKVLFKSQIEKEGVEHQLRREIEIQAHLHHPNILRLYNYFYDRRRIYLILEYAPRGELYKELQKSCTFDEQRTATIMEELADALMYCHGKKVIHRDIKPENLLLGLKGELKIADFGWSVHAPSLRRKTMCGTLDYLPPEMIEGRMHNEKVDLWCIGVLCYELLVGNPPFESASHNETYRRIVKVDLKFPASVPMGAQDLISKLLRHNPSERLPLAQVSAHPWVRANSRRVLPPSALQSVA
Summary of the method: as §1

[7] = target: T7, scanMAX Kinase assay panel (Homo sapiens, UniProt Q9BRS2); conditions: RIOK1; 1 uM; read-out: Percent Control (%)
T7 construct: purchased DiscoverX
T7 sequence (Q9BRS2 1-568): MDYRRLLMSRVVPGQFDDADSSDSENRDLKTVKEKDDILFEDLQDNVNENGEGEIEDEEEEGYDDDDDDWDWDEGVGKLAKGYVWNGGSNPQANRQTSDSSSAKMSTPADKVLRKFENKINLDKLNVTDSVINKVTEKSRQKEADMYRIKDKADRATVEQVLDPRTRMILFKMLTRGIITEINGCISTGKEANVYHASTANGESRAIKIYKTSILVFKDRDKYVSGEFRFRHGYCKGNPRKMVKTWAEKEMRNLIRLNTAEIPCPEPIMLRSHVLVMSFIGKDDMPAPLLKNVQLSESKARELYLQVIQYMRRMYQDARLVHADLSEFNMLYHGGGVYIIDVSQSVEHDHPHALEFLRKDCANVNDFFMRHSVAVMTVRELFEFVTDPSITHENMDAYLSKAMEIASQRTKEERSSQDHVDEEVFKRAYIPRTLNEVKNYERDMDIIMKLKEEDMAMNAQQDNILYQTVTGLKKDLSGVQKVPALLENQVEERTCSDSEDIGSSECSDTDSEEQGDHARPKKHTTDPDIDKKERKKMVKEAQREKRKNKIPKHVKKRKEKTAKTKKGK
Summary of the method: as §1

[8] = target: T8, scanMAX Kinase assay panel (Homo sapiens, UniProt Q9P0L2); conditions: MARK1; 1 uM; read-out: Percent Control (%)
T8 construct: purchased DiscoverX
T8 sequence (Q9P0L2 whole entry): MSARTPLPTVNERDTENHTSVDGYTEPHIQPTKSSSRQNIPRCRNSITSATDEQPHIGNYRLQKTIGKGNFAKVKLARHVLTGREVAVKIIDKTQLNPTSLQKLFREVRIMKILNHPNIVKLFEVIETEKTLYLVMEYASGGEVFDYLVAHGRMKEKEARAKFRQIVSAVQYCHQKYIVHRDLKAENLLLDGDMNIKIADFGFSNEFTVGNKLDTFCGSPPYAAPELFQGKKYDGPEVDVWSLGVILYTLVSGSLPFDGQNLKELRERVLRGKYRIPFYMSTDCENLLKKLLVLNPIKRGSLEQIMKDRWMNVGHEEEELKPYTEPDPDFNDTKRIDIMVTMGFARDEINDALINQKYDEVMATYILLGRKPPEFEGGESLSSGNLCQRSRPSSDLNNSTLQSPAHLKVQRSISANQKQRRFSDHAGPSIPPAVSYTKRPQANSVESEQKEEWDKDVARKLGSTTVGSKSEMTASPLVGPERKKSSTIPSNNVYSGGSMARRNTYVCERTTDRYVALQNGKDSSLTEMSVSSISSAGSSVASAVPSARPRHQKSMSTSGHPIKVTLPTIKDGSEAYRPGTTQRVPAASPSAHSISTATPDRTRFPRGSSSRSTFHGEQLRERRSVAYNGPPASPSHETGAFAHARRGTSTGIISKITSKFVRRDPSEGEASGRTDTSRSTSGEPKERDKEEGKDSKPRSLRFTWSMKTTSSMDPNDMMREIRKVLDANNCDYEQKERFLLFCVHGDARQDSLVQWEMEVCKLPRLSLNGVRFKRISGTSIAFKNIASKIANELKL
Summary of the method: as §1

Structure (SMILES): Cc1ccc(C(=O)Nc2ccc(CN3CCN(C)CC3)c(C(F)(F)F)c2)cc1C#Cc1cnc2c(Nc3cnn(C)c3)cccn12 [Example 1, 4-methyl-3-((8-((1-methyl-1H-pyrazol-4-yl)amino)imidazo[1,2-a]pyridin-3-yl)ethynyl)-N-(4-((4-methylpiperazin-1-yl)methyl)-3-(trifluoromethyl)phenyl)benzamide]
- remaining binding at 1 µM [1]: 0%
- remaining binding at 1 µM [2]: 92%
- remaining binding at 1 µM [3]: 100%
- remaining binding at 1 µM [4]: 44%
- remaining binding at 1 µM [5]: 100%
- remaining binding at 1 µM [6]: 3%
- remaining binding at 1 µM [7]: 77%
- remaining binding at 1 µM [8]: 78%

Structure (SMILES): Cc1cn(-c2cc(NC(=O)c3ccc(C)c(C#Cc4cnc5c(Nc6cnn(C)c6)cccn45)c3)cc(C(F)(F)F)c2)cn1 [Example 12, 4-methyl-N-(3-(4-methyl-1H-imidazol-1-yl)-5-(trifluoromethyl)phenyl)-3-((8-((1-methyl-1H-pyrazol-4-yl)amino)imidazo[1,2-a]pyridin-3-yl)ethynyl)benzamide]
- remaining binding at 1 µM [1]: 1%
- remaining binding at 1 µM [2]: 90%
- remaining binding at 1 µM [3]: 100%
- remaining binding at 1 µM [4]: 67%
- remaining binding at 1 µM [5]: 100%
- remaining binding at 1 µM [6]: 56%
- remaining binding at 1 µM [7]: 91%
- remaining binding at 1 µM [8]: 95%

Structure (SMILES): Cc1ccc(NC(=O)C2(C(=O)Nc3ccc(F)cc3)CC2)cc1C#Cc1cnc2c(Nc3cnn(C(C)C)c3)cccn12 [Example 78]
- remaining binding at 1 µM [1]: 97%
- remaining binding at 1 µM [2]: 100%
- remaining binding at 1 µM [3]: 100%
- remaining binding at 1 µM [4]: 94%
- remaining binding at 1 µM [5]: 100%
- remaining binding at 1 µM [6]: 34%
- remaining binding at 1 µM [7]: 100%
- remaining binding at 1 µM [8]: 100%
